Assay results as given in patent publication US10201532B2, “Compounds and their use” (ALLECRA THERAPEUTICS GMBH, priority 2010, dated 2019).

Experiments:
E. coli Ecoli233 (KPC3) = experiment: Synergistic broth micro-dilution MIC; type: cell-based, Escherichia coli
[1] = system: K. pneumoniae NCTC 13438 (KPC3); experiment: Synergistic broth micro-dilution MIC; type: cell-based, Klebsiella pneumoniae; conditions: BLI at 4 μg/mL
[2] = system: K. pneumoniae UMM3 (KPC2); experiment: Synergistic broth micro-dilution MIC; type: cell-based, Klebsiella pneumoniae; conditions: BLI at 4 μg/mL
[3] = biological target: crude KPC-3 enzyme extract (UniProt Q9F663, H272Y, species not given); experiment: β-Lactamase inhibitory assay with CENTA substrate; type: biochemical; conditions: also headed KPC2
Text: (§1) The Compound-1 was subjected to β-lactamase inhibitory assay to determine IC50 and to compare that with the comparator BLI agents as described elsewhere (Bebrone et. al., Antimicrob. Agents. Chemother, 2001, 45(6): 1868-1871; Jamieson et. al, Antimicrob. Agents. Chemother, 2003, 47(5): 1652-1657). Briefly, enzyme extracts from KPC-2 producing and KPC-3 expressing bacterial gram negative strains were used to study the β-lactamase inhibitory activity and determination of IC50 using CENTA as the substrate for β-lactamase.

[4] = biological target: T1, crude KPC-2 enzyme extract (Klebsiella pneumoniae, UniProt Q9F663); experiment: β-Lactamase inhibitory assay with CENTA substrate; type: biochemical
T1 construct: enzyme extracts from KPC-2 producing and KPC-3 expressing bacterial gram negative strains were used; endogenous in cells; host or cells: KPC-2 producing gram-negative strain
Text: as §1

[5] = system: KPC-3 expressing E. coli (J53 R6206); experiment: Synergistic broth micro-dilution MIC (checkerboard); type: cell-based, Escherichia coli
[6] = system: KPC-3 expressing E. coli (J53 R6206); experiment: microbe, parasite or virus in culture; type: cell-based, Escherichia coli
Protocol: The β-lactam compound was tested for in vitro antibacterial activities by the broth micro-dilution or agar dilution method as specified in documents published by Clinical and Laboratory Standards Institute (CLSI), USA (formerly NCCLS). Approved standard M7-A7, January 2006, CLSI, Wayne, Pa., USA and M100-S18, January 2008, CLSI, Wayne, Pa., USA.
In agar dilution method briefly, stock solutions of the cephalosporins for veterinary use (e.g. 2 mg/mL) was made in water, 0.1M phosphate buffers or appropriate solvents and the solution was serially two fold diluted. Compound-1 was dissolved in water and Tazobactam (comparator BLI) in 0.1M phosphate buffer, pH 6.0 to get a solution of 1 mg/mL. Cephalosporins were screened in a concentration range of 0.5-32 μg/mL. For combination, Tazobactam or the Compound-1 described herein were tested at a fixed concentration of 4 μg/mL along with the cephalosporins concentration ranging from 0.5 to 32 μg/mL. […] The compound of formula (I) and Tazobactam were also tested individually. The bacterial inoculum was prepared by picking 3 to 5 well isolated bacterial colonies with the same morphological appearance from an 18-24 h old culture and adjusting the turbidity of the saline suspension to 0.5 McFarland turbidity standard equivalent to a bacterial population of ˜1×10^8 CFU per mL of suspension. The suspension was diluted 1:10 in saline to get a bacterial population of ˜1×10^7 CFU/mL as inoculum. This bacterial inoculum was inoculated onto the prepared petri dishes by a multipoint inoculator with each inoculum spot containing ˜1×10^4 CFU of the bacterial strain. The inoculated petri dishes were incubated at 35° C. in an ambient atmosphere for 18-20 h.

[7] = system: KPC-2 producing K. pneumoniae (ATCC BAA-1705); experiment: Synergistic broth micro-dilution MIC (checkerboard); type: cell-based, Klebsiella pneumoniae; conditions: ATCC BAA-1705
[8] = BLI at 4 μg/mL, E. coli J53 R6206

T1 sequence (Q9F663 25-293 limits assumed): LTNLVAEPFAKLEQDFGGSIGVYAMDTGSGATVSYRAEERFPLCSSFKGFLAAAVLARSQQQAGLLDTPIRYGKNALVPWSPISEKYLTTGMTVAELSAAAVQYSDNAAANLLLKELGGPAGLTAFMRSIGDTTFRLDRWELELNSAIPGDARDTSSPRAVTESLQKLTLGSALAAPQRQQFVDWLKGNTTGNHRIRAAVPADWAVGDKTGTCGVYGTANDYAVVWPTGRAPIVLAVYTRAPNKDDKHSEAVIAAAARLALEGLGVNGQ

`C[C@]1(Cn2ccnn2)[C@H](C(=O)O)N2C(=O)C[C@H]2S1(=O)=O` [Tazobactam] was tested, and the “MIC of Imipenem in combination with BLI” value (E. coli Ecoli233 (KPC3); BLI at 4 μg/mL) was 8 µg/mL, the “MIC of Imipenem in combination with BLI” value (E. coli Ecoli233 (KPC3); BLI at 16 μg/mL) was 8 µg/mL and the “MIC of Imipenem in combination with BLI” value [1] was 64 µg/mL. For the same compound, the “MIC of Imipenem in combination with BLI” value [2] was 4 µg/mL, the IC50 [3] was 71 µM and the IC50 [4] was 980 µM. The “MIC of Cefepime in combination with BLI” value ([5]; BLI at 2 μg/mL) was 16 µg/mL, the “MIC of Cefotaxime in combination with BLI” value (from here on “MIC of Cefotaxime”) ([5]; BLI at 2 μg/mL) was 8 µg/mL and the “MIC of Ceftazidime in combination with BLI” value (“MIC of Ceftazidime” for short) ([5]; BLI at 2 μg/mL) was 32 µg/mL. For the same compound, the “MIC of Ceftobiprole in combination with BLI” value (from here on “MIC of Ceftobiprole”) ([5]; BLI at 2 μg/mL) was 32 µg/mL, the “MIC of Imipenem in combination with BLI” value ([5]; BLI at 2 μg/mL) was 2 µg/mL and the “MIC of Meropenem in combination with BLI” value ([5]; BLI at 2 μg/mL) was 1 µg/mL. The “MIC of Cefepime in combination with BLI” value ([5]; BLI at 4 μg/mL) was 8 µg/mL, the “MIC of Cefotaxime” value ([5]; BLI at 4 μg/mL) was 8 µg/mL and the “MIC of Ceftazidime” value ([5]; BLI at 4 μg/mL) was 32 µg/mL. For the same compound, the “MIC of Ceftobiprole” value ([5]; BLI at 4 μg/mL) was 16 µg/mL, the “MIC of Imipenem in combination with BLI” value ([5]; BLI at 4 μg/mL) was 2 µg/mL and the “MIC of Meropenem in combination with BLI” value ([5]; BLI at 4 μg/mL) was 0.5 µg/mL. The “MIC of Cefepime in combination with BLI” value ([5]; BLI at 8 μg/mL) was 4 µg/mL, the “MIC of Cefotaxime” value ([5]; BLI at 8 μg/mL) was 4 µg/mL and the “MIC of Ceftazidime” value ([5]; BLI at 8 μg/mL) was 32 µg/mL. The “MIC of Ceftobiprole” value ([5]; BLI at 8 μg/mL) was 16 µg/mL, the “MIC of Imipenem in combination with BLI” value ([5]; BLI at 8 μg/mL) was 1 µg/mL and the “MIC of Meropenem in combination with BLI” value ([5]; BLI at 8 μg/mL) was 0.5 µg/mL. For the same compound, the “MIC of Imipenem in combination with BLI” value ([5]; BLI at 16 μg/mL) was 1 µg/mL, the “MIC of Meropenem in combination with BLI” value ([5]; BLI at 16 μg/mL) was less than 0.125 µg/mL and the MIC ([5]; Escherichia coli, read-out: MIC of BLI alone, BLI alone) was greater than 8 µg/mL. For the same compound, the “MIC of Cefadroxil in combination with BLI” value (shortened to “MIC of Cefadroxil”) [6, 8] was greater than 32 µg/mL, the “MIC of Cefalonium in combination with BLI” value (from here on “MIC of Cefalonium”) [6, 8] was 32 µg/mL and the “MIC of Cefquinome in combination with BLI” value (“MIC of Cefquinome” for short) [6, 8] was 8 µg/mL. The “MIC of Ceftiofur in combination with BLI” value [6, 8] was 2 µg/mL, the MIC ([6]; Escherichia coli, read-out: MIC of BLI alone) was greater than 16 µg/mL and the “MIC of Cefquinome” value ([7]; BLI at 1 μg/mL) was greater than 64 µg/mL. The “MIC of Ceftiofur in combination with BLI” value ([7]; BLI at 1 μg/mL) was greater than 64 µg/mL, the “MIC of Cefepime in combination with BLI” value ([7]; BLI at 2 μg/mL) was 64 µg/mL and the “MIC of Cefotaxime” value ([7]; BLI at 2 μg/mL) was no less than 64 µg/mL. The “MIC of Cefquinome” value ([7]; BLI at 2 μg/mL) was greater than 64 µg/mL, the “MIC of Ceftazidime” value ([7]; BLI at 2 μg/mL) was greater than 64 µg/mL and the “MIC of Ceftiofur in combination with BLI” value ([7]; BLI at 2 μg/mL) was greater than 64 µg/mL. The “MIC of Ceftobiprole” value ([7]; BLI at 2 μg/mL) was greater than 64 µg/mL, the “MIC of Imipenem in combination with BLI” value ([7]; BLI at 2 μg/mL) was 16 µg/mL and the “MIC of Meropenem in combination with BLI” value ([7]; BLI at 2 μg/mL) was 32 µg/mL. For the same compound, the “MIC of Aztreonam in combination with BLI” value ([7]; BLI at 4 μg/mL) was greater than 64 µg/mL, the “MIC of Cefadroxil” value ([7]; BLI at 4 μg/mL) was greater than 64 µg/mL and the “MIC of Cefalonium” value ([7]; BLI at 4 μg/mL) was greater than 64 µg/mL. The “MIC of Cefepime in combination with BLI” value ([7]; BLI at 4 μg/mL) was 64 µg/mL, the “MIC of Cefotaxime” value ([7]; BLI at 4 μg/mL) was 32 to 64 µg/mL and the “MIC of Cefquinome” value ([7]; BLI at 4 μg/mL) was greater than 64 µg/mL. The “MIC of Ceftazidime” value ([7]; BLI at 4 μg/mL) was greater than 64 µg/mL, the “MIC of Ceftiofur in combination with BLI” value ([7]; BLI at 4 μg/mL) was greater than 64 µg/mL and the “MIC of Ceftobiprole” value ([7]; BLI at 4 μg/mL) was greater than 64 µg/mL. For the same compound, the “MIC of Ertapenem in combination with BLI” value ([7]; BLI at 4 μg/mL) was greater than 64 µg/mL, the “MIC of Faropenem in combination with BLI” value ([7]; BLI at 4 μg/mL) was greater than 64 µg/mL and the “MIC of Imipenem in combination with BLI” value ([7]; BLI at 4 μg/mL) was 16 µg/mL. The “MIC of Meropenem in combination with BLI” value ([7]; BLI at 4 μg/mL) was 32 µg/mL, the “MIC of Cefepime in combination with BLI” value ([7]; BLI at 8 μg/mL) was 32 µg/mL and the “MIC of Cefotaxime” value ([7]; BLI at 8 μg/mL) was 32 µg/mL. For the same compound, the “MIC of Cefquinome” value ([7]; BLI at 8 μg/mL) was 64 µg/mL, the “MIC of Ceftazidime” value ([7]; BLI at 8 μg/mL) was greater than 64 µg/mL and the “MIC of Ceftiofur in combination with BLI” value ([7]; BLI at 8 μg/mL) was greater than 64 µg/mL. For the same compound, the “MIC of Ceftobiprole” value ([7]; BLI at 8 μg/mL) was greater than 64 µg/mL, the “MIC of Ertapenem in combination with BLI” value ([7]; BLI at 8 μg/mL) was greater than 64 µg/mL and the “MIC of Faropenem in combination with BLI” value ([7]; BLI at 8 μg/mL) was greater than 64 µg/mL. For the same compound, the “MIC of Imipenem in combination with BLI” value ([7]; BLI at 8 μg/mL) was 8 to 16 µg/mL, the “MIC of Meropenem in combination with BLI” value ([7]; BLI at 8 μg/mL) was 16 to 32 µg/mL and the “MIC of Aztreonam in combination with BLI” value ([7]; BLI at 16 μg/mL) was greater than 64 µg/mL. For the same compound, the “MIC of Cefadroxil” value ([7]; BLI at 16 μg/mL) was greater than 64 µg/mL, the “MIC of Cefalonium” value ([7]; BLI at 16 μg/mL) was greater than 64 µg/mL and the “MIC of Cefepime in combination with BLI” value ([7]; BLI at 16 μg/mL) was 32 µg/mL. The “MIC of Cefotaxime” value ([7]; BLI at 16 μg/mL) was 32 µg/mL, the “MIC of Cefquinome” value ([7]; BLI at 16 μg/mL) was 64 µg/mL and the “MIC of Ceftazidime” value ([7]; BLI at 16 μg/mL) was greater than 64 µg/mL. The “MIC of Ceftiofur in combination with BLI” value ([7]; BLI at 16 μg/mL) was greater than 64 µg/mL, the “MIC of Ceftobiprole” value ([7]; BLI at 16 μg/mL) was greater than 64 µg/mL and the “MIC of Ertapenem in combination with BLI” value ([7]; BLI at 16 μg/mL) was 64 µg/mL. For the same compound, the “MIC of Faropenem in combination with BLI” value ([7]; BLI at 16 μg/mL) was greater than 64 µg/mL, the “MIC of Imipenem in combination with BLI” value ([7]; BLI at 16 μg/mL) was 8 µg/mL and the “MIC of Meropenem in combination with BLI” value ([7]; BLI at 16 μg/mL) was 8 to 16 µg/mL. For the same compound, the “MIC of Cefquinome” value ([7]; BLI at 32 μg/mL) was 64 µg/mL, the “MIC of Ceftiofur in combination with BLI” value ([7]; BLI at 32 μg/mL) was 64 µg/mL and the “MIC of Aztreonam in combination with BLI” value ([7]; BLI at 64 μg/mL) was greater than 64 µg/mL. For the same compound, the “MIC of Cefadroxil” value ([7]; BLI at 64 μg/mL) was greater than 64 µg/mL, the “MIC of Cefalonium” value ([7]; BLI at 64 μg/mL) was greater than 64 µg/mL and the “MIC of Cefepime in combination with BLI” value ([7]; BLI at 64 μg/mL) was 32 µg/mL. For the same compound, the “MIC of Cefotaxime” value ([7]; BLI at 64 μg/mL) was 32 µg/mL, the “MIC of Cefquinome” value ([7]; BLI at 64 μg/mL) was 64 µg/mL and the “MIC of Ceftazidime” value ([7]; BLI at 64 μg/mL) was 64 µg/mL. The “MIC of Ceftiofur in combination with BLI” value ([7]; BLI at 64 μg/mL) was 64 µg/mL, the “MIC of Ceftobiprole” value ([7]; BLI at 64 μg/mL) was greater than 64 µg/mL and the “MIC of Ertapenem in combination with BLI” value ([7]; BLI at 64 μg/mL) was 32 µg/mL. The “MIC of Faropenem in combination with BLI” value ([7]; BLI at 64 μg/mL) was greater than 64 µg/mL, the “MIC of Imipenem in combination with BLI” value ([7]; BLI at 64 μg/mL) was 4 to 8 µg/mL and the “MIC of Meropenem in combination with BLI” value ([7]; BLI at 64 μg/mL) was 4 µg/mL.
